Test results: EP1333824B1, “TREATMENT OF SEXUAL DYSFUNCTION WITH BOMBESIN RECEPTOR ANTAGONISTS” (Warner-Lambert Company LLC, priority 2000, dated 2002)
pIC50: −log10 of the molar value.

molecular target: T1, human GRP receptor (BB2) (Homo sapiens, UniProt P30550); assay: BB2 binding assay ([125I][Tyr4]bombesin, CHO-K1 cell membranes); settings: Table 7; N-terminal sulfonamide derivatives
T1 construct: expressed in transfected cells
Experimental: In the following experiments, measurement of BB1 and BB2 binding was as follows. […] The final pellet was resuspended in assay buffer to a final cell concentration of 1.5 × 10^5/mL. […] Nonspecific binding was defined by 1µM bombesin. […] Radioactivity bound was determined using a gamma counter.
All competition data was analysed using nonlinear regression utilizing iterative curve-plotting procedures in Prism® (GraphPad Software Inc., San Diego, USA).

T1 sequence (P30550 whole entry): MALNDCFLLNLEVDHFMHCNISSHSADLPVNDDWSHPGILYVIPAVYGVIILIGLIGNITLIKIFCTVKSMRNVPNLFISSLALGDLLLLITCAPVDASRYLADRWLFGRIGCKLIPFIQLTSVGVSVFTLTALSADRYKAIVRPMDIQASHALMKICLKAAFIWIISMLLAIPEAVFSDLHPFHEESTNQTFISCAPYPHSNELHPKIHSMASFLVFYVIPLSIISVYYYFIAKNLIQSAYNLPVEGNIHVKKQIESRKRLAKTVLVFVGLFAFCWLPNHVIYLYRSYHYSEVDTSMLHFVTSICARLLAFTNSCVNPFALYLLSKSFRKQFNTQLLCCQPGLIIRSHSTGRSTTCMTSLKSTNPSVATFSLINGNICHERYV

| SMILES | pIC50 | BB2 IC50 |
| --- | --- | --- |
| Cc1nc(S(=O)(=O)N[C@@](C)(Cc2c[nH]c3ccccc23)C(=O)NCC2(c3ccccn3)CCCCC2)cn1C [Example 144, (S)-2-(1,2-Dimethyl-1H-imidazole-4-sulfonylamino)-3-(1H-indol-3-yl)-2-methyl-N-(1-pyridin-2-yl-cyclohexylmethyl)-propionamide] | < 5.00 |  |
| C[C@@](Cc1c[nH]c2ccccc12)(NS(=O)(=O)c1cccc2cccc([N+](=O)[O-])c12)C(=O)NCC1(c2ccccn2)CCCCC1 [Example 146, (S)-3-(1H-Indol-3-yl)-2-methyl-2-(8-nitro-naphthalene-1-sulfonylamino)-N-(1-pyridin-2-yl-cyclohexylmethyl)-propionamide] | < 5.00 |  |
| C[C@@](Cc1c[nH]c2ccccc12)(NS(=O)(=O)c1cc([N+](=O)[O-])ccc1Cl)C(=O)NCC1(c2ccccn2)CCCCC1 [Example 147, (S)-2-(2-Chloro-5-nitro-benzenesulfonylamino)-3-(1H-indol-3-yl)-2-methyl-N-(1-pyridin-2-yl-cyclohexylmethyl)-propionamide] |  | Ia |
| C[C@@](Cc1c[nH]c2ccccc12)(NS(=O)(=O)c1c(Cl)cc(Cl)cc1Cl)C(=O)NCC1(c2ccccn2)CCCCC1 [Example 148, (S)-3-(1H-Indol-3-yl)-2-methyl-N-(1-pyridin-2-yl-cyclohexylmethyl)-2-(2,4,6-trichloro-benzenesulfonylamino)-propionamide] |  | Ia |
| C[C@@](Cc1c[nH]c2ccccc12)(NS(=O)(=O)c1ccc(Cl)cc1[N+](=O)[O-])C(=O)NCC1(c2ccccn2)CCCCC1 [Example 149, (S)-2-(4-Chloro-2-nitro-benzenesulfonylamino)-3-(1H-indol-3-yl)-2-methyl-N-(1-pyridin-2-yl-cyclohexylmethyl)-propionamide] | < 5.00 |  |
| C[C@@](Cc1c[nH]c2ccccc12)(NS(=O)(=O)c1ccc(S(=O)(=O)c2ccccc2)s1)C(=O)NCC1(c2ccccn2)CCCCC1 [Example 150, (S)-2-(5-Benzenesulfonyl-thiophene-2-sulfonylamino)-3-(1H-indol-3-yl)-2-methyl-N-(1-pyridin-2-yl-cyclohexylmethyl)-propionamide] | < 5.00 |  |
| C[C@@](Cc1c[nH]c2ccccc12)(NS(=O)(=O)c1ccc(OC(F)(F)F)cc1)C(=O)NCC1(c2ccccn2)CCCCC1 [Example 151, (S)-3-(1H-Indol-3-yl)-2-methyl-N-(1-pyridin-2-yl-cyclohexylmethyl)-2-(4-trifluoromethoxy-benzenesulfonylamino)-propion amide] | < 5.00 |  |
| COC(=O)c1ccccc1S(=O)(=O)N[C@@](C)(Cc1c[nH]c2ccccc12)C(=O)NCC1(c2ccccn2)CCCCC1 [Example 155, 2-{(S)-2-(1H-Indol-3-yl)-1-methyl-1-[(1-pyridin-2-yl-cyclohexylmethyl)-carbamoyl]-ethylsulfamoyl} -benzoic acid methyl ester] | < 5.00 |  |
| COc1cc(C)ccc1S(=O)(=O)N[C@@](C)(Cc1c[nH]c2ccccc12)C(=O)NCC1(c2ccccn2)CCCCC1 [Example 159, (S)-3-(1H-Indol-3-yl)-2-(2-methoxy-4-methyl-benzenesulfonylamino)-2-methyl-N-(1-pyridin-2-yl-cyclohexylmethyl)-propionamide] | < 5.00 |  |
| C[C@@](Cc1c[nH]c2ccccc12)(NS(=O)(=O)c1ccc(-c2ccccn2)s1)C(=O)NCC1(c2ccccn2)CCCCC1 [Example 160, (S)-3-(1H-Indol-3-yl)-2-methyl-N-(1-pyridin-2-yl-cyclohexylmethyl)-2-(5-pyridin-2-yl-thiophene-2-sulfonylamino)-propionamide] | < 5.00 |  |
| C[C@@](Cc1c[nH]c2ccccc12)(NS(=O)(=O)c1cnc(Cl)c(Br)c1)C(=O)NCC1(c2ccccn2)CCCCC1 [Example 161, (S)-2-(5-Bromo-6-chloro-pyridine-3-sulfonylamino)-3-(1H-indol-3-yl)-2-methyl-N-(1-pyridin-2-yl-cyclohexylmethyl)-propionamide] | < 5.00 |  |
| C[C@@](Cc1c[nH]c2ccccc12)(NS(=O)(=O)c1ccc([N+](=O)[O-])cc1[N+](=O)[O-])C(=O)NCC1(c2ccccn2)CCCCC1 [Example 162, (S)-2-(2,4-Dinitro-benzenesulfonylamino)-3-(1H-indol-3-yl)-2-methyl-N-(1-pyridin-2-yl-cyclohexylmethyl)-propionamide] | < 5.00 |  |
| C[C@@](Cc1c[nH]c2ccccc12)(NS(=O)(=O)c1ccc(S(C)(=O)=O)cc1)C(=O)NCC1(c2ccccn2)CCCCC1 [Example 163, (S)-3-(1H-Indol-3-yl)-2-(4-methanesulfonyl-benzenesulfonylamino)-2-methyl-N-(1-pyridin-2-yl-cyclohexylmethyl)-propionamide] | < 5.00 |  |
| CC(C)(C)c1ccc(S(=O)(=O)N[C@@](C)(Cc2c[nH]c3ccccc23)C(=O)NCC2(c3ccccn3)CCCCC2)cc1 [Example 164, (S)-2-(4-tert-Butyl-benzenesulfonylamino)-3-(1H-indol-3-yl)-2-methyl-N-(1-pyridin-2-yl-cyclohexylmethyl)-propionamide] | < 5.00 |  |
| Cc1cc(S(=O)(=O)N[C@@](C)(Cc2c[nH]c3ccccc23)C(=O)NCC2(c3ccccn3)CCCCC2)c(Cl)cc1Cl [Example 165, (S)-2-(2,4-Dichloro-5-methyl-benzenesulfonylamino)-3-(1H-indol-3-yl)-2-methyl-N-(1-pyridin-2-yl-cyclohexylmethyl)-propionamide] | < 5.00 |  |
| C[C@@](Cc1c[nH]c2ccccc12)(NS(=O)(=O)c1ccc(Cl)c(C(F)(F)F)c1)C(=O)NCC1(c2ccccn2)CCCCC1 [Example 166, (S)-2-(Chloro-trifluoromethyl-benzenesulfonylamino)-3-(1H-indol-3-yl)-2-methyl-N-(1-pyridin-2-yl-cyclohexylmethyl)-propionamide] | < 5.00 |  |
| CCCCc1ccc(S(=O)(=O)N[C@@](C)(Cc2c[nH]c3ccccc23)C(=O)NCC2(c3ccccn3)CCCCC2)cc1 [Example 168, (S)-2-(4-Butyl-benzenesulfonylamino)-3-(1H-indol-3-yl)-2-methyl-N-(1-pyridin-2-yl-cyclohexylmethyl)-propionamide] | < 5.00 |  |
